Columns and labels:
Details in all cases: 72 h
Caco-2 [1] = experiment: cell viability relative to DMSO; higher = less toxic
Calu-3 [2] = experiment: as above
HepG2 [3] = experiment: as above
U2OS [4] = experiment: as above
Vero E6 [5] = experiment: as above
Caco-2 [6] = experiment: relative viability EC50 (midpoint between 100% and the lowest measured viability); higher = less toxic
Calu-3 [7] = experiment: as above
HepG2 [8] = experiment: as above
U2OS [9] = experiment: as above
Vero E6 [10] = experiment: as above
Caco-2 [11] = experiment: drug sensitivity score (DSS) for viability; higher = more toxic; extreme values may be limits of the assay
Calu-3 [12] = experiment: as above
HepG2 [13] = experiment: as above
U2OS [14] = experiment: as above
Vero E6 [15] = experiment: as above

Compound	cell viability (Caco-2 [1]; 1 nM)	cell viability (Caco-2 [1]; 10 nM)	cell viability (Caco-2 [1]; 100 nM)	cell viability (Caco-2 [1]; 1000 nM)	cell viability (Caco-2 [1]; 10000 nM)	cell viability (Calu-3 [2]; 1 nM)	cell viability (Calu-3 [2]; 10 nM)	cell viability (Calu-3 [2]; 100 nM)	cell viability (Calu-3 [2]; 1000 nM)	cell viability (Calu-3 [2]; 10000 nM)	cell viability (HepG2 [3]; 1 nM)	cell viability (HepG2 [3]; 10 nM)	cell viability (HepG2 [3]; 100 nM)	cell viability (HepG2 [3]; 1000 nM)	cell viability (HepG2 [3]; 10000 nM)	cell viability (U2OS [4]; 1 nM)	cell viability (U2OS [4]; 10 nM)	cell viability (U2OS [4]; 100 nM)	cell viability (U2OS [4]; 1000 nM)	cell viability (U2OS [4]; 10000 nM)	cell viability (Vero E6 [5]; 1 nM)	cell viability (Vero E6 [5]; 10 nM)	cell viability (Vero E6 [5]; 100 nM)	cell viability (Vero E6 [5]; 1000 nM)	cell viability (Vero E6 [5]; 10000 nM)	relative viability EC50 (Caco-2 [6])	relative viability EC50 (Calu-3 [7])	relative viability EC50 (HepG2 [8])	relative viability EC50 (U2OS [9])	relative viability EC50 (Vero E6 [10])	drug sensitivity score (Caco-2 [11])	drug sensitivity score (Calu-3 [12])	drug sensitivity score (HepG2 [13])	drug sensitivity score (U2OS [14])	drug sensitivity score (Vero E6 [15])
Cc1cn2c(N)c(Cl)cc(C(=O)NCC3CCN(CC(C)C)CC3)c2n1	103%	83.1%	103%	99.7%	107%	102%	96.5%	99.9%	93.4%	99.9%	107%	99.6%	102%	88.1%	97.1%	101%	95.1%	102%	97.6%	95.4%	88%	101%	90.2%	96.5%	99.2%	> 10 µM	> 10 µM	> 10 µM	> 10 µM	> 10 µM	0	0	0.5	0	0
O=C(Oc1ccc(Br)cc1)N1CCN2CCC1CC2	101%	105%	94.2%	98%	102%	97.5%	101%	101%	100%	95.7%	97.7%	101%	97%	103%	108%	99%	102%	104%	99%	98.4%	94.2%	101%	93.5%	95.5%	104%	> 10 µM	> 10 µM	> 10 µM	> 10 µM	> 10 µM	0	0	0	0	0
O=C1CC2(CCCC2)CC(=O)N1CCNC[C@H]1COc2ccccc2O1	95.4%	89%	99.9%	98.5%	101%	92.5%	107%	98.4%	107%	96.3%	108%	108%	93.2%	110%	98.3%	103%	97%	97.2%	96.3%	101%	99.4%	101%	106%	92.6%	97.8%	> 10 µM	> 10 µM	> 10 µM	> 10 µM	> 10 µM	0	0	0	0	0

Reference: the supplement of paper PMC13380429
